Source: PMC8698657, “Absorption and Transport Characteristics and Mechanisms of Carnosic Acid” (Biology, 2021)
Read-outs that look alike come from different tables or passages of the source.

Test: Trans-enterocyte transport of CA in Caco-2 cell monolayer
Type: in vitro ADME, human
Details: human
Procedure: Caco-2 were cultured in EMEM complete medium containing 10% FBS, 1% non-essential amino acids, and 1% penicillin-streptomycin double antibody, and the culture conditions were 37 °C, 5% CO2, in a constant temperature incubator [16]. We first established non-toxic dose ranges of CA in Caco-2 cells using MTT assay. Dimethylsulfoxide (DMSO) was used as the vehicle to deliver CA to the cells. The final concentration of DMSO in all experiments was 0.1% (v/v) in cell culture media. Caco-2 cells were seeded in a 96-well plate at a cell density of 5 × 10^4 cells/mL per well, and cultured under 5% CO2 and 37 °C for 24 h. A quantity of 200 μL of medium was added to each well to obtain a series of CA solutions (concentrations of 25, 50, 75, and 100 μmoL). After 48 h of treatment, Caco-2 cells were subjected to the MTT assay as described previously. For the transport study, Caco-2 cells were seeded on the apical compartment (AP) of 12-well Transwell plates at a density of 2 × 10^5 cells/mL. The complete culture medium was added into basolateral (BL) and AP compartments. The basolateral medium was replaced every other day.
CA was dissolved in HBSS solution at 50, 75, and 100 μM. The HBSS solution containing CA combined with 0.5% Tween 80, 5 mmol/L EDTA or 5% PEG 400 was prepared. The cumulative migration (Qr), apparent permeability coefficient (Papp), and the Papp value of bi-direction transport of CA were calculated according to formulas.
The 0.5 mL […] containing different concentrations of CA was added to the AP side of the 12-well Transwell plate, and 1.5 mL HBSS solution was added to the BL side. At 0, 0.5, 1, 1.5, 2, 2.5, and 3 h, 0.2 mL medium was taken from the BL side and stored at −80 °C. The TEER value of each Transwell chamber was measured.
The cryopreserved Transwell samples were transferred to a 15 mL centrifuge tube, and any remaining liquid was fully washed using 1 mL of 50% methanol solution which was also transferred to the 15 mL centrifuge tube. The mixture was vortexed for 1 min, and 6 mL of ethyl acetate solution was added to the tube and vortexed for another 2 min. The mixture was centrifuged at 6000 rpm/min at 4 °C for 10 min. The supernatant was dried under vacuum, dissolved in 5% phosphoric acid methanol solution, and filtered through a 0.22 μm microporous membrane. The concentration of CA was determined by HPLC as described above.

[1] = Caco-2, CA 50 μM, Average of 0.5-3.0 h

CC(C)c1cc2c(c(O)c1O)[C@@]1(C(=O)O)CCCC(C)(C)[C@@H]1CC2 [CA, Carnosic acid]
Papp B→A at 0.5 h, 50 μM (Caco-2, CA 50 μM, 0.5 h): 0.12 ± 0.1 ×10⁻⁶ cm/s | efflux ratio at 0.5 h, 50 μM (Caco-2, CA 50 μM, 0.5 h): 0.42 | Papp A→B at 0.5 h, 50 μM (Caco-2, CA 50 μM, 0.5 h, CA alone, read-out: Papp AP to BL): 0.28 ± 0.07 ×10⁻⁶ cm/s | Papp A→B at 0.5 h, 50 μM (Caco-2, CA 50 μM, 0.5 h, read-out: Papp AP-BL): 0.28 ± 0.07 ×10⁻⁶ cm/s | Papp B→A at 1 h, 50 μM (Caco-2, CA 50 μM, 1.0 h): 0.21 ± 0.09 ×10⁻⁶ cm/s | efflux ratio at 1 h, 50 μM (Caco-2, CA 50 μM, 1.0 h): 0.58 | Papp A→B at 1 h, 50 μM (Caco-2, CA 50 μM, 1.0 h, CA alone, read-out: Papp AP to BL): 0.36 ± 0.01 ×10⁻⁶ cm/s | Papp A→B at 1 h, 50 μM (Caco-2, CA 50 μM, 1.0 h, read-out: Papp AP-BL): 0.36 ± 0.01 ×10⁻⁶ cm/s | Papp B→A at 1.5 h, 50 μM (Caco-2, CA 50 μM, 1.5 h): 0.36 ± 0.06 ×10⁻⁶ cm/s | efflux ratio at 1.5 h, 50 μM (Caco-2, CA 50 μM, 1.5 h): 0.52 | Papp A→B at 1.5 h, 50 μM (Caco-2, CA 50 μM, 1.5 h, CA alone, read-out: Papp AP to BL): 0.69 ± 0.09 ×10⁻⁶ cm/s | Papp A→B at 1.5 h, 50 μM (Caco-2, CA 50 μM, 1.5 h, read-out: Papp AP-BL): 0.69 ± 0.09 ×10⁻⁶ cm/s | Papp B→A at 2 h, 50 μM (Caco-2, CA 50 μM, 2.0 h): 0.49 ± 0.07 ×10⁻⁶ cm/s | efflux ratio at 2 h, 50 μM (Caco-2, CA 50 μM, 2.0 h): 0.44 | Papp A→B at 2 h, 50 μM (Caco-2, CA 50 μM, 2.0 h, CA alone, read-out: Papp AP to BL): 1.11 ± 0.04 ×10⁻⁶ cm/s | Papp A→B at 2 h, 50 μM (Caco-2, CA 50 μM, 2.0 h, read-out: Papp AP-BL): 1.11 ± 0.04 ×10⁻⁶ cm/s | Papp B→A at 2.5 h, 50 μM (Caco-2, CA 50 μM, 2.5 h): 0.56 ± 0.05 ×10⁻⁶ cm/s | efflux ratio at 2.5 h, 50 μM (Caco-2, CA 50 μM, 2.5 h): 0.98 | Papp A→B at 2.5 h, 50 μM (Caco-2, CA 50 μM, 2.5 h, CA alone, read-out: Papp AP to BL): 0.57 ± 0.03 ×10⁻⁶ cm/s | Papp A→B at 2.5 h, 50 μM (Caco-2, CA 50 μM, 2.5 h, read-out: Papp AP-BL): 0.57 ± 0.03 ×10⁻⁶ cm/s | Papp B→A at 3 h, 50 μM (Caco-2, CA 50 μM, 3.0 h): 0.29 ± 0.03 ×10⁻⁶ cm/s | efflux ratio at 3 h, 50 μM (Caco-2, CA 50 μM, 3.0 h): 1.32 | Papp A→B at 3 h, 50 μM (Caco-2, CA 50 μM, 3.0 h, CA alone, read-out: Papp AP to BL): 0.22 ± 0.02 ×10⁻⁶ cm/s | Papp A→B at 3 h, 50 μM (Caco-2, CA 50 μM, 3.0 h, read-out: Papp AP-BL): 0.22 ± 0.02 ×10⁻⁶ cm/s | Papp B→A at 50 μM [1]: 0.33 ± 0.03 ×10⁻⁶ cm/s | efflux ratio at 50 μM [1]: 0.62 | Papp A→B at 50 μM (Caco-2, CA 50 μM, Average of 0.5-3.0 h, CA alone, read-out: Papp AP to BL): 0.54 ± 0.05 ×10⁻⁶ cm/s | Papp A→B at 50 μM (Caco-2, CA 50 μM, Average of 0.5-3.0 h, read-out: Papp AP-BL): 0.53 ± 0.02 ×10⁻⁶ cm/s | Papp B→A at 0.5 h, 75 μM (Caco-2, CA 75 μM, 0.5 h): 0.91 ± 0.02 ×10⁻⁶ cm/s | efflux ratio at 0.5 h, 75 μM (Caco-2, CA 75 μM, 0.5 h): 0.88 | Papp A→B at 0.5 h, 75 μM (Caco-2, CA 75 μM, 0.5 h, CA alone, read-out: Papp AP to BL): 1.03 ± 0.01 ×10⁻⁶ cm/s | Papp A→B at 0.5 h, 75 μM (Caco-2, CA 75 μM, 0.5 h, read-out: Papp AP-BL): 1.03 ± 0.01 ×10⁻⁶ cm/s | Papp B→A at 1.5 h, 75 μM (Caco-2, CA 75 μM, 1.5 h): 0.79 ± 0.07 ×10⁻⁶ cm/s | efflux ratio at 1.5 h, 75 μM (Caco-2, CA 75 μM, 1.5 h): 0.95 | Papp A→B at 1.5 h, 75 μM (Caco-2, CA 75 μM, 1.5 h, CA alone, read-out: Papp AP to BL): 0.83 ± 0.01 ×10⁻⁶ cm/s | Papp A→B at 1.5 h, 75 μM (Caco-2, CA 75 μM, 1.5 h, read-out: Papp AP-BL): 0.83 ± 0.01 ×10⁻⁶ cm/s | Papp B→A at 2 h, 75 μM (Caco-2, CA 75 μM, 2.0 h): 0.62 ± 0.01 ×10⁻⁶ cm/s | efflux ratio at 2 h, 75 μM (Caco-2, CA 75 μM, 2.0 h): 0.33 | Papp A→B at 2 h, 75 μM (Caco-2, CA 75 μM, 2.0 h, CA alone, read-out: Papp AP to BL): 1.84 ± 0.1 ×10⁻⁶ cm/s | Papp A→B at 2 h, 75 μM (Caco-2, CA 75 μM, 2.0 h, read-out: Papp AP-BL): 1.84 ± 0.1 ×10⁻⁶ cm/s | Papp B→A at 2.5 h, 75 μM (Caco-2, CA 75 μM, 2.5 h): 0.41 ± 0.03 ×10⁻⁶ cm/s | efflux ratio at 2.5 h, 75 μM (Caco-2, CA 75 μM, 2.5 h): 0.49 | Papp A→B at 2.5 h, 75 μM (Caco-2, CA 75 μM, 2.5 h, CA alone, read-out: Papp AP to BL): 0.83 ± 0.01 ×10⁻⁶ cm/s
